# System: LdtMt2^C354S
# Format: biochemical, Mycobacterium tuberculosis
substance,measurement,value
GlcNAc-MurNAc-L-Ala-D-iGluNH2-m-DAPNH2-D-Ala-D-Ala [Compound 4],Product formation with LdtMt2^C354S,no product formation was observed
